Experimental data from PubChem BioAssay (NCI).
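Method: 48-hour compound exposure of cells in 96-well plates, five concentrations, linear interpolation of endpoints. GI50 is the concentration that inhibits growth by half. At the TGI there is no net growth.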

What was measured:
Assay in all cases: NCI-60 cell line screen, 48 h
HCT-15 colon = test system: HCT-15 colon
ACHN renal = test system: ACHN renal
HCT-116 colon = test system: HCT-116 colon
NCI-H522 lung = test system: NCI-H522 lung
SK-MEL-2 melanoma = test system: SK-MEL-2 melanoma
SF-295 CNS = test system: SF-295 CNS
LOX IMVI melanoma = test system: LOX IMVI melanoma
SK-OV-3 ovarian = test system: SK-OV-3 ovarian
OVCAR-4 ovarian = test system: OVCAR-4 ovarian
SR leukemia = test system: SR leukemia

| SMILES | TGI (HCT-15 colon) | TGI (ACHN renal) | TGI (HCT-116 colon) | TGI (NCI-H522 lung) | TGI (SK-MEL-2 melanoma) | TGI (SF-295 CNS) | TGI (LOX IMVI melanoma) | TGI (SK-OV-3 ovarian) | TGI (OVCAR-4 ovarian) | TGI (SR leukemia) | GI50 (SR leukemia) | GI50 (HCT-15 colon) | GI50 (ACHN renal) | GI50 (HCT-116 colon) | GI50 (NCI-H522 lung) | GI50 (SK-MEL-2 melanoma) | GI50 (SF-295 CNS) | GI50 (LOX IMVI melanoma) | GI50 (SK-OV-3 ovarian) | GI50 (OVCAR-4 ovarian) |
| --- | --- | --- | --- | --- | --- | --- | --- | --- | --- | --- | --- | --- | --- | --- | --- | --- | --- | --- | --- | --- |
| CN=c1ss/c(=N\C(=S)N(C)C)n1C1CCCCC1 | > 31.6 µM | > 31.6 µM | > 10 µM | > 31.6 µM | > 31.6 µM | > 31.6 µM | > 31.6 µM | > 31.6 µM | > 31.6 µM | – | – | – | – | – | – | – | – | – | – | – |
| CN(C)CCCNC(=O)c1cccc2nc3ccccc3nc12 | > 82.4 µM | > 100 µM | 34.7 µM | > 100 µM | 29 µM | > 55.4 µM | 39.8 µM | > 100 µM | 47.2 µM | > 100 µM | – | – | – | – | – | – | – | – | – | – |
| CC1=C(C(=O)Nc2cccc(C(F)(F)F)c2)C(c2ccccc2F)C(C(=O)Nc2cccc(C(F)(F)F)c2)=C(C)N1 | – | 19 µM | 13.5 µM | 17.5 µM | 11 µM | 20.3 µM | 18.3 µM | 25.9 µM | 14 µM | – | – | – | – | – | – | – | – | – | – | – |
| Nc1nc2c(c(=O)[nH]1)N=C(COP(=O)(O)OP(=O)(O)O)CN2 | > 100 µM | > 100 µM | > 100 µM | > 100 µM | > 100 µM | > 100 µM | > 100 µM | > 100 µM | – | > 100 µM | – | – | – | – | – | – | – | – | – | – |
| CC(=O)Nc1c(I)c(C(=O)O)c(I)c(N(C)C(C)=O)c1I | > 100 µM | > 100 µM | > 100 µM | > 100 µM | > 100 µM | > 100 µM | > 100 µM | > 100 µM | > 100 µM | > 100 µM | > 100 µM | > 100 µM | > 100 µM | > 100 µM | > 100 µM | > 100 µM | > 100 µM | > 100 µM | > 100 µM | > 100 µM |
| C=C(CS(=O)(=O)c1ccccc1)C(=O)OCC | 35 µM | 29.5 µM | 29.9 µM | 12.9 µM | 35 µM | 32 µM | 24.2 µM | 28 µM | – | – | – | – | – | – | – | – | – | – | – | – |
| Cc1ccn2c(-c3csc(Nc4cccc(O)c4)n3)c(C)nc2c1 | 24 µM | > 100 µM | 15.1 µM | 3.22 µM | 20.4 µM | 11.9 µM | – | 11.8 µM | 53.2 µM | – | 0.2 µM | 0.273 µM | 0.812 µM | 0.397 µM | 0.32 µM | 0.72 µM | 2.34 µM | – | 1.04 µM | 2.43 µM |
| Cc1cc(C(=O)N2CCN(C)CC2)c2c(=O)n(-c3ccccc3)c(=O)n(CC(O)CN3CCN(c4ncccn4)CC3)c2n1 (stereo unspecified) | > 100 µM | > 100 µM | > 100 µM | > 100 µM | > 100 µM | > 100 µM | > 100 µM | > 100 µM | > 100 µM | > 100 µM | 9.01 µM | > 100 µM | > 100 µM | > 100 µM | > 100 µM | > 100 µM | > 100 µM | > 100 µM | > 100 µM | > 100 µM |
| O=C(NCCSSCCNC(=O)/C(Cc1ccc(O)c(Br)c1)=N/O)/C(Cc1ccc(O)c(Br)c1)=N/O | 14.4 µM | 5.77 µM | 5.98 µM | 4.26 µM | 3.26 µM | 4.29 µM | 3.31 µM | 3.32 µM | 18.3 µM | 7.08 µM | – | – | – | – | – | – | – | – | – | – |
| COc1cc(-c2nccc3[nH]c(-c4cccc5[nH]ccc45)nc23)cc(OC)c1OC | 12 µM | 11.6 µM | 0.0202 µM | – | 23.5 µM | – | 5.98 µM | 14.8 µM | 16.2 µM | 10.4 µM | < 0.01 µM | < 0.01 µM | < 0.01 µM | < 0.01 µM | – | < 0.01 µM | – | < 0.01 µM | < 0.01 µM | < 0.01 µM |
| O=[N+]([O-])c1ccc(Oc2cccc(C(F)(F)F)c2)c([N+](=O)[O-])c1 | 10.3 µM | 13.8 µM | 12.7 µM | 5.7 µM | 9.82 µM | 11.3 µM | 10.8 µM | – | 19.9 µM | 1.82 µM | 0.286 µM | 2.41 µM | 3.39 µM | 1.24 µM | 2.11 µM | 3.81 µM | 2.87 µM | 0.447 µM | – | 3 µM |
| COc1cc(C2CC(=O)c3c(C)nn(-c4nc5ccccc5[nH]4)c3C2)cc(OC)c1OC (stereo unspecified) | > 100 µM | – | > 100 µM | > 100 µM | – | – | – | > 100 µM | – | > 100 µM | > 100 µM | > 100 µM | – | 7.39 µM | 2.64 µM | – | – | – | 4.12 µM | – |
| O=C(CCCCCNC1=CC(=O)c2ccccc2C1=O)NCCC[Te]c1ccccc1 | 1.4 µM | 1.49 µM | 0.98 µM | 81.5 µM | 6.3 µM | 0.686 µM | 1.4 µM | 1.85 µM | 7.59 µM | – | – | 0.293 µM | 0.408 µM | 0.295 µM | 1.75 µM | 2.79 µM | 0.248 µM | 0.3 µM | 0.487 µM | 2.21 µM |
| COc1ccc2oc(-c3cc4cc(OC)ccc4o3)cc2c1 | > 100 µM | > 100 µM | – | > 100 µM | > 100 µM | > 100 µM | > 100 µM | > 100 µM | > 100 µM | – | – | – | – | – | – | – | – | – | – | – |
| COC(=O)[C@H]1CC(=O)C=C2CCCC21 (stereo partly specified) | > 100 µM | – | > 100 µM | > 100 µM | > 100 µM | > 100 µM | > 100 µM | > 100 µM | > 100 µM | – | – | – | – | – | – | – | – | – | – | – |
| O=C(N/N=C/c1ccncc1)c1ccc(C(F)(F)F)nc1Nc1cccc(C(F)(F)F)c1 | 11.7 µM | 12.1 µM | 10.4 µM | 10.7 µM | – | 3.91 µM | 12.3 µM | 6.67 µM | 7.99 µM | 1.74 µM | 0.271 µM | 0.804 µM | 3.46 µM | 1.4 µM | 2.7 µM | – | 1.37 µM | 0.913 µM | 2.13 µM | 0.808 µM |
| CC[C@@]1(OC(=O)C(N)CCC(=O)O)C(=O)OCc2c1cc1n(c2=O)Cc2cc3ccccc3nc2-1 (stereo partly specified) | > 100 µM | 0.561 µM | > 100 µM | 2.03 µM | 3.44 µM | 0.446 µM | 0.482 µM | 3.33 µM | > 20.8 µM | – | – | – | – | – | – | – | – | – | – | – |
